Laboratory results published in patent US20110144001A1, “HIGHLY BRIDGED PEPTIDES FROM ACTINOMADURA NAMIBIENSIS” (SANOFI-AVENTIS, priority 2008, published 2011).

How the values were obtained:
[1] = system: Streptomyces murinus (DSM 40091); experiment: microbe, parasite or virus in culture; type: cell-based; conditions: 28° C., 20 μl of 1 mg/ml test solution on 6 mm filter, 1 to 3 days
Protocol: (§1) The compounds were dissolved in water with 10% MeOH to a final concentration of 1 mg/ml. For the bioassay sterile Nunc plates with a size of 24×24 cm were used. For one plate 200 ml of agar were used. The agar was cooled after autoclaving to 55° C. and 2-4 ml of culture suspension of the test organism were added before plating. To each plate 64 filter plates with 6 mm in diameter were added. To each filter 20 μl of the test solution were added and incubated for 1 to 3 days at 28° C. or 37° C. The inhibition zone in mm was reported. For a detailed description of the methods, see Bauer et al., Amer. J. Clin. Pathol. 1966, 45, 493-496; Müller & Melchinger, Methoden in der Mikrobiologie, Franckhsche Verlagshandlung, Stuttgart (1964); Mueller & Hinton, Proc. Soc. Expt. Biol. Med. 1941, 48, 330-333.

[2] = system: Bacillus subtilis (ATCC 6633); experiment: microbe, parasite or virus in culture; type: cell-based; conditions: 37° C., 20 μl of 1 mg/ml test solution on 6 mm filter, 1 to 3 days
Protocol: as §1

[3] = system: SNI mouse model of neuropathic pain; experiment: Spared nerve injury (SNI) mouse model of neuropathic pain, tactile allodynia by automatic von Frey test; type: in vivo, C57B6 mice; conditions: 3 mg/kg intravenous single application
Description: Labyrinthopeptin A1 was studied in the spared nerve injury (SNI) mouse model of neuropathic pain in order to proof the activity on tactile allodynia. Under general anesthesia, the two major branches of the sciatic nerve in adult male C57B6 mice (weight: 22.8 g+/−0.35 SEM) have been ligated and transsected, with the sural nerve left intact. Tactile allodynia has been determined with the automatic von Frey test: using a dump needle stick, the plantar skin of hind paws was exposed to a pressure stimulus of increasing intensity up to 5 g. The force in grams at which the animal responded with hindpaw withdrawal was used as a read-out for tactile allodynia. The study was performed 7 days after nerve lesion over 6 hours with an additional measurement after 24 hours. Within two days after nerve transsection, tactile allodynia developed completely and remained stable over at least two weeks. The compound was administered intravenous as a single application (3 mg/kg). As a vehicle for the intravenous application was the 1:1:18 (ethanol:solutol: phosphate buffered saline) vehicle chosen.
The effect was gone 24 hours after application. […] The percent benefit of the treatment was evaluated using the |AUC1-6 hour| values of the ipsilateral vehicle group (0% benefit) and all |AUC1-6 hour| values of the contralateral sides of all three groups (100% benefit=maximal possible effect). […]

SMILES	inhibition zone, Streptomyces murinus (DSM 40091) [1] [mm]	inhibition zone, Bacillus subtilis (ATCC 6633) [2] [mm]	percent benefit of the treatment from |AUC1-6 hour| of paw withdrawal threshold ([3]; 7 days after nerve lesion, 0% = ipsilateral vehicle, 100% = contralateral sides) [% benefit]	treatment effect on delta |AUC1-6 hour| of paw withdrawal threshold (1-way ANOVA, Dunnett analysis) ([3]; vs vehicle)	zone of inhibition at 1000 µg/mL ([1]; Streptomyces murinus, DSM40091) [mm]	zone of inhibition at 1000 µg/mL ([2]; Bacillus subtilis, ATCC6633) [mm]
C/C=C1\NC(=O)[C@H](Cc2ccccc2)NC(=O)[C@@H]2CCCN2C(=O)[C@H](C(C)C)NC(=O)[C@H](Cc2c[nH]c3ccccc23)NC(=O)[C@]23CSC[C@H](NC1=O)C(=O)N[C@H](C(=O)NCc1ccccc1)CSSC[C@@H](NC(=O)[C@@H]1CSC[C@]4(C[C@H](NC(=O)OC(C)(C)C)C(=O)N[C@@H](CC(N)=O)C(=O)N[C@@H](C)C(=O)N4)C(=O)N[C@@H](C(C)C)C(=O)N[C@@H](Cc4c[nH]c5ccccc45)C(=O)N[C@@H](CCC(=O)NCc4ccccc4)C(=O)N1)C(=O)N[C@@H](C2)C(=O)N[C@@H]([C@@H](C)O)C(=O)NCC(=O)N3	7	9	–	–	–	–
C/C=C1\NC(=O)[C@H](Cc2ccccc2)NC(=O)[C@@H]2CCCN2C(=O)[C@H](C(C)C)NC(=O)[C@H](Cc2c[nH]c3ccccc23)NC(=O)[C@]23CSC[C@H](NC1=O)C(=O)N[C@H](C(=O)O)CSSC[C@@H](NC(=O)[C@@H]1CSC[C@]4(C[C@H](NC(=O)OC(C)(C)C)C(=O)N[C@@H](CC(N)=O)C(=O)N[C@@H](C)C(=O)N4)C(=O)N[C@@H](C(C)C)C(=O)N[C@@H](Cc4c[nH]c5ccccc45)C(=O)N[C@@H](CCC(=O)O)C(=O)N1)C(=O)N[C@@H](C2)C(=O)N[C@@H]([C@@H](C)O)C(=O)NCC(=O)N3 [Labyrinthopeptin A1 derivative, Ex. 16]	0	9	–	–	–	–
C/C=C1\NC(=O)[C@H](Cc2ccccc2)NC(=O)[C@@H]2CCCN2C(=O)[C@H](C(C)C)NC(=O)[C@H](Cc2c[nH]c3ccccc23)NC(=O)[C@]23CSC[C@H](NC1=O)C(=O)N[C@H](C(=O)O)CSSC[C@@H](NC(=O)[C@@H]1CSC[C@]4(C[C@H](NC(=O)OCCCCC)C(=O)N[C@@H](CC(N)=O)C(=O)N[C@@H](C)C(=O)N4)C(=O)N[C@@H](C(C)C)C(=O)N[C@@H](Cc4c[nH]c5ccccc45)C(=O)N[C@@H](CCC(=O)O)C(=O)N1)C(=O)N[C@@H](C2)C(=O)N[C@@H]([C@@H](C)O)C(=O)NCC(=O)N3 [Labyrinthopeptin A1 derivative, Ex. 18]	7	8	–	–	–	–
C/C=C1\NC(=O)[C@H](Cc2ccccc2)NC(=O)[C@@H]2CCCN2C(=O)[C@H](C(C)C)NC(=O)[C@H](Cc2c[nH]c3ccccc23)NC(=O)[C@]23CSC[C@H](NC1=O)C(=O)N[C@H](C(=O)O)CSSC[C@@H](NC(=O)[C@@H]1CSC[C@]4(C[C@H](N)C(=O)N[C@@H](CC(N)=O)C(=O)N[C@@H](C)C(=O)N4)C(=O)N[C@@H](C(C)C)C(=O)N[C@@H](Cc4c[nH]c5ccccc45)C(=O)N[C@@H](CCC(=O)O)C(=O)N1)C(=O)N[C@@H](C2)C(=O)N[C@@H]([C@@H](C)O)C(=O)NCC(=O)N3 [Labyrinthopeptin A1]	13	16.5	95	significant treatment effects	–	–
CN(C)[C@@H]1C(O)=C(C(N)=O)C(=O)[C@@]2(O)C(O)=C3C(=O)c4c(O)cccc4[C@@](C)(O)[C@H]3C[C@@H]12 [Tetracycline, reference compound]	–	–	–	–	24	32
